Data taken from PubChem BioAssay (NCI).
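Results reflect a 48-hour exposure of cells in 96-well plates to compound at five concentrations. TGI is the concentration that stops growth completely.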 Where a SMILES comes first, the peptide text is derived from it. [ ]: non-standard residue; d: D form. The star is where a group is joined. ξ: configuration not given here. NMeY = CN[C@@H](Cc1ccc(O)cc1)C(=O)O; Cbz = O=C(OCc1ccccc1)*; ξA = CC(N)C(=O)O

Tests used:
Assay in all cases: NCI anticancer screen, dose series, 48 h
786-0 renal = system: 786-0 renal
COLO 205 colon = system: COLO 205 colon
DU-145 prostate = system: DU-145 prostate
K-562 leukemia = system: K-562 leukemia
NCI-H522 lung = system: NCI-H522 lung
OVCAR-3 ovarian = system: OVCAR-3 ovarian
PC-3 prostate = system: PC-3 prostate
SK-MEL-2 melanoma = system: SK-MEL-2 melanoma
SN12C renal = system: SN12C renal
SNB-75 CNS = system: SNB-75 CNS

| Structure (SMILES) | TGI (786-0 renal) | TGI (COLO 205 colon) | TGI (DU-145 prostate) | TGI (K-562 leukemia) | TGI (NCI-H522 lung) | TGI (OVCAR-3 ovarian) | TGI (PC-3 prostate) | TGI (SK-MEL-2 melanoma) | TGI (SN12C renal) | TGI (SNB-75 CNS) |
| --- | --- | --- | --- | --- | --- | --- | --- | --- | --- | --- |
| c1ccc2c3c(ccc2c1)CSCc1ccc2ccccc2c1-3 | > 100 µM | > 100 µM | > 100 µM | > 100 µM | > 100 µM | > 100 µM | > 100 µM | > 100 µM | > 100 µM | > 100 µM |
| CCCCCCCCCCCCOC1C(COCCN2CCCC2)OC2OC(C)(C)OC21 (stereo not given) | 3.08 µM | 3.22 µM | 23.1 µM | 2.7 µM | 2.53 µM | 3.05 µM | 3.16 µM | 3.09 µM | 3.24 µM | 3.75 µM |
| COc1ccc(C[C@@H](C(=O)NCC(N)=O)N(C)C(=O)[C@@H]2CCCN2C(=O)[C@H](CC(C)C)NC(=O)C(C)NC(=O)OCc2ccccc2)cc1 (stereo not given in full) (Cbz-[ξA]LP[NMeY](Me)G-NH2) | > 100 µM | > 100 µM | > 100 µM | > 100 µM | > 100 µM | > 100 µM | > 100 µM | > 100 µM | > 100 µM | > 100 µM |
| OC(CC(c1ccccc1)c1ccc(Cl)cc1)c1ccc(Cl)cc1 (stereo not given) | > 100 µM | 34.8 µM | > 100 µM | > 100 µM | 69.1 µM | 81.6 µM | > 100 µM | 49.8 µM | > 100 µM | 81.8 µM |
| CCOC(=O)c1cc(-c2ccc(OC)c(OC)c2)c[nH]1 | > 10 µM | > 10 µM | > 10 µM | > 10 µM | > 10 µM | > 10 µM | > 10 µM | > 10 µM | > 10 µM | > 10 µM |
| CN(C)c1ccc(C(=NNC(=O)c2cc3ccccc3[nH]2)c2ccc(N(C)C)cc2)cc1 | 19.8 µM | > 20.7 µM | > 100 µM | > 100 µM | 2.53 µM | 1.81 µM | > 66.8 µM | 3.97 µM | > 93.9 µM | 16.9 µM |
| O=C1c2cc(Cl)ccc2-n2c(noc2=O)C2CSCN12 (stereo not given) | > 100 µM | > 100 µM | > 100 µM | > 100 µM | > 100 µM | > 100 µM | > 100 µM | > 100 µM | > 100 µM | > 100 µM |
| COc1cc(C2C(Cl)C(=O)N2c2ccc(Br)cc2)cc(I)c1O (stereo not given) | > 100 µM | > 100 µM | > 100 µM | > 100 µM | > 100 µM | > 100 µM | > 100 µM | > 100 µM | > 100 µM | > 100 µM |
